Patent US20240067600A1, “SMALL MOLECULE INHIBITORS OF THE MITOCHONDRIAL PERMEABILITY TRANSITION PORE (mtPTP)” (UNIVERSITY OF KANSAS, priority 2014, published 2024)
Like-named read-outs stand apart in the source and are kept apart here.

Experiments:
Format in all cases: biochemical, mice
mtPTP = experiment: Calcium retention capacity (CRC) assay on isolated mitochondria; settings: for Calcium Retention Capacity (CRC/CRC0 at 12.5 μM): 12.5 μM compound; for Calcium Retention Capacity (CRC/CRC0) at 1.56 μM: 1.56 μM compound
Experimental: Assay buffer: 250 mM sucrose, 10 mM MOPS-Tris, 0.01 mM EGTA-Tris, 1.0 mM phosphoric acid-Tris, pH 7.4. • Solution 1. 10 mM glutamate and 5 mM malate in Assay buffer. • Solution 2. 1% DMSO in Solution 2. • Solution 3. 0.5 mg/mL mitochondria and 1.0 μM Calcium Green-5N in Assay Buffer. • Solution 4. 0.25 mM CaCl2).
Protocol Summary: • 1. Freshly isolate mitochondria, prepare solutions according to the recipes in the Reagent Section. • 2. Dispense 100 μL of Solution 2 to Columns 1-2 (negative control) of the 96-well black assay plate (Falcon 353376). • 3. Dispense 200 μL of Solution 1 to Row A Columns 3-12. • 4. Next, dispense 100 μL of Solution 2 to Rows B-H Columns 3-12. • 5. Add 4 μL of 5 mM test compounds in DMSO to Row A Columns 3-12, perform 1:2 serial dilutions Row A to H Columns 3-12. • 6. Finally, dispense 100 μL of Solution 3 in all wells. • 7. Experiment starts. Read Calcium Green-5N fluorescence (excitation 485 nm, emission 538 nm) and perform a train of 4 μL Solution 4 additions with Fluoroskan Ascent FL, Thermo Scientific.

IMM potential = experiment: Rhodamine 123 (Rh123) uptake counterscreen;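 further: isolated mitochondria respiring on glutamate plus malate in sucrose MOPS-Tris buffer at pH 7.4, Rh123 added with the organelles, compounds tested across a twofold dilution series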
Experimental: Assay buffer: 250 mM sucrose, 10 mM MOPS-Tris, 0.01 mM EGTA-Tris, 1.0 mM phosphoric acid-Tris, pH 7.4 • Solution 1. 5.0 mM glutamate and 2.5 mM malate in Assay Buffer. • Solution 2. 1% DMSO in Solution 1. • Solution 3. 0.8 μM FCCP (the stock 40 μM in DMSO) in Solution 1. • Solution 4. 0.5 mg/mL mitochondria and 0.8 μM Rh123 in Assay Buffer.
Protocol Summary: • 1. Freshly isolate mitochondria, prepare solutions according to the recipes in the Reagent Section. • 2. Dispense 100 μL of Solution 3 to Columns 1-2 and Solution 2 Columns 11-12 (positive and negative controls, respectively) of the 96-well black assay plate (Falcon 353376). • 3. Dispense 200 μL of Solution 1 to Row A Columns 3-10. • 4. Next, dispense 100 μL of Solution 2 to Rows B-H Columns 3-10. • 5. Add 4 μL of 10 mM test compounds in DMSO to Row A Columns 3-10, perform 1:2 serial dilutions Row A to H Columns 3-10. • 6. Finally, dispense 100 μL of Solution 4 in all wells. The reaction starts. • 7. Keep the plate at room temperature for 5 minutes and then read fluorescence (excitation 485 nm, emission 538 nm) on Fluoroskan Ascent FL, Thermo Scientific.
Concentration-Response Counterscreen Assay to Identify Compounds that Prevent Mitochondrial Swelling Via Interference with the IMM Potential (SAR Assay AID No. 743361)
Assay buffer: 250 mM sucrose, 10 mM MOPS-Tris, 0.01 mM EGTA-Tris, 1.0 mM phosphoric acid-Tris, pH 7.4 • Solution 1. 5.0 glutamate and 2.5 mM malate in Assay Buffer. • Solution 2. 1% DMSO in Solution 1. • Solution 3. 0.8 μM FCCP (the stock 40 μM in DMSO) in Solution 1. • Solution 4. 0.5 mg/mL mitochondria and 0.8 μM Rh123 in Assay Buffer.

[1] = test system: Mitochondrial Permeability Transition Pore; experiment: Mitochondrial swelling absorbance assay
Experimental: Mitochondrial Swelling (Hit Validation, Confirmatory Assay, Concentration-Response, AID No. 720722)
Assay buffer: 250 mM sucrose, 10 mM MOPS-Tris, 0.01 mM EGTA-Tris, 1.0 mM phosphoric acid-Tris, pH 7.4 • Solution 1. 5.0 mM glutamate and 2.5 mM malate in Assay buffer. • Solution 2. 80-120 μM CaCl2) depending on mitochondrial activity in Solution 1. Note: Concentration of Ca^2+ in the assay is dependent upon the activity of the isolated mitochondria which is determined via a calcium titration just before each screening batch. A Ca^2+ concentration is used that allows for the arrival at a 2:1 window at the 20 minute time period. • Solution 3. 1% DMSO in Solution 2. • Solution 4. 2.0 mM EGTA-Tris, pH 7.4 in Solution 3. • Solution 5. 0.5 mg/mL mitochondria in Assay Buffer.
Protocol Summary: • 1. Freshly isolate mitochondria, prepare solutions according to the recipes in the reagent section • 2. Dispense 100 μL of Solution 4 to Columns 1-2 and Solution 3 Columns 11-12 (positive and negative controls, respectively) of the 96-well clear assay plate (Falcon 353072) • 3. Dispense 200 μL of Solution 1 to Row A Columns 3-10. • 4. Next, dispense 100 μL of Solution 3 to Rows B-H Columns 3-10. • 5. Add 4 μL of 5 mM test compounds in DMSO to Row A Columns 3-10, perform 1:2 serial dilutions Row A to H Columns 3-10. • 6. Finally, dispense 100 μL of Solution 5 in all wells. The reaction starts. • 7. Keep the plate at room temperature for 20 minutes and then read absorbance at 540 nm on MultiSkan EX, Thermo Scientific.
Concentration-Response Assay to Identify Compounds that Inhibit Mitochondrial Swelling (SAR Assay AID No. 743359)
Assay buffer: 250 mM sucrose, 10 mM MOPS-Tris, 0.01 mM EGTA-Tris, 1.0 mM phosphoric acid, pH 7.4 • Solution 1. 5.0 mM glutamate and 2.5 mM malate in Assay Buffer. • Solution 2. 100-120 μM CaCl2) depending on mitochondrial activity in Solution 1. Note: Concentration of Ca^2+ in the assay is dependent upon the activity of the isolated mitochondria which is determined via a calcium titration just before each screening batch. A Ca^2+ concentration is used that allows for the arrival at a 2:1 window at the 20 minute time period. • Solution 3. 1% DMSO in Solution 2. • Solution 4. 2.0 mM EGTA-Tris, pH 7.4 in Solution 3. • Solution 5. 0.5 mg/mL mitochondria in Assay Buffer.
Protocol Summary: • 1. Freshly isolate mitochondria, prepare solutions according to the recipes in the Reagent Section. • 2. Dispense 100 μL of Solution 4 to Columns 1-2 and Solution 3 Columns 11-12 (positive and negative controls, respectively) of the 96-well clear assay plate (Falcon 353072). • 3. Dispense 200 μL of Solution 1 to Row A Columns 3-10. • 4. Next, dispense 100 μL of Solution 3 to Rows B-H Columns 3-10. • 5. Add 4 μL of 5 mM test compounds in DMSO to Row A Columns 3-10, perform 1:2 serial dilutions Row A to H Columns 3-10. • 6. Finally, dispense 100 μL of Solution 5 in all wells. The reaction starts. • 7. Keep the plate at room temperature for 20 minutes and then read absorbance at 540 nm on MultiSkan EX, Thermo Scientific.

[2] = Table 1, read-out: Rh123 uptake (EC50)
[3] = Table 2, average of >3 experiments ± SEM
[4] = Table 2, average of >3 experiments ± SEM, read-out: Rh123 Assay EC50

## CC(C)C1CCN(CCCC(=O)c2ccc(Br)cc2)CC1
mtPTP; Table 1, average ± SEM
  Calcium Retention Capacity (CRC/CRC0 at 12.5 μM): 1.16 ± 0.05
IMM potential; [2]
  EC50: 64.8 ± 4.19 µM
[1]; Table 1, average ± SEM
  EC50: 10000 ± 7780 nM

## CN(C)c1ccc(Cl)cc1NC(=O)c1cc(-c2cccc(O)c2)on1
mtPTP; Table 1, average ± SEM
  Calcium Retention Capacity (CRC/CRC0 at 12.5 μM): 2.22 ± 0.38
IMM potential; [2]
  EC50: > 100 µM
[1]; Table 1, average ± SEM
  EC50: 1610 ± 866 nM

## O=S(=O)(Nc1ccc(CCN2CCNCC2)cc1)c1cc(Cl)cc(Cl)c1
mtPTP; Table 1, average ± SEM
  Calcium Retention Capacity (CRC/CRC0 at 12.5 μM): 1.09 ± 0.05
IMM potential; [2]
  EC50: > 100 µM
[1]; Table 1, average ± SEM
  EC50: 21400 ± 983 nM

## O=C(Nc1cc(Cl)ccc1F)c1cc(-c2cccc(O)c2)on1
mtPTP; Table 1, average ± SEM
  Calcium Retention Capacity (CRC/CRC0) at 1.56 μM: 3.77 ± 0.17 (at 1.56 μM)
IMM potential; [2]
  EC50: > 100 µM
[1]; Table 1, average ± SEM
  EC50: 172 ± 14 nM

## O=C(Nc1cccc(Cl)c1Cl)c1cc(-c2ccc(F)c(O)c2)on1 [drawing 193]
mtPTP; Table 1, average ± SEM
  Calcium Retention Capacity (CRC/CRC0 at 12.5 μM): 11.21 ± 1.38
IMM potential; [2]
  EC50: > 100 µM
[1]; Table 1, average ± SEM
  EC50: 71 ± 1.1 nM

## O=C(Nc1ccc(CN2CCCCC2)cc1)c1ccc(Cl)c(OCc2ccccc2Cl)c1 [Entry 9]
mtPTP; [3]
  Calcium Retention Capacity (CRC/CRC0 at 12.5 μM): 2.37 ± 0.41
IMM potential; [4]
  EC50: > 100 µM
[1]; [3]
  EC50: 4000 ± 660 nM

## COc1ccc(NC(=O)c2cc(-c3cccc(O)c3)on2)cc1Cl
mtPTP; Table 1, average ± SEM
  Calcium Retention Capacity (CRC/CRC0 at 12.5 μM): 3.26 ± 0.32
IMM potential; [2]
  EC50: > 100 µM
[1]; Table 1, average ± SEM
  EC50: 189 ± 28 nM

## CN1CCN(c2ccc(NS(=O)(=O)c3cc(Cl)cc(Cl)c3)cc2)CC1
mtPTP; Table 1, average ± SEM
  Calcium Retention Capacity (CRC/CRC0 at 12.5 μM): 1.11 ± 0.03
IMM potential; [2]
  EC50: > 100 µM
[1]; Table 1, average ± SEM
  EC50: 21700 ± 1080 nM

## N#Cc1ccc(Cl)cc1NC(=O)c1cc(-c2cccc(O)c2)on1
mtPTP; Table 1, average ± SEM
  Calcium Retention Capacity (CRC/CRC0) at 1.56 μM: 7.69 ± 0.61
  Calcium Retention Capacity (CRC/CRC0 at 12.5 μM): 13.99 ± 1.50
IMM potential; [2]
  EC50: > 100 µM
[1]; Table 1, average ± SEM
  EC50: 30 ± 2.6 nM

## CN1CCN(Cc2ccc(NS(=O)(=O)c3cc(Cl)cc(Cl)c3)cc2)CC1
mtPTP; Table 1, average ± SEM
  Calcium Retention Capacity (CRC/CRC0 at 12.5 μM): 1.10 ± 0.02
IMM potential; [2]
  EC50: > 100 µM
[1]; Table 1, average ± SEM
  EC50: 29200 ± 2100 nM

## COc1ccc(-c2cc(C(=O)Nc3cc(Cl)ncc3C)no2)cc1O [drawing 129]
[1]; Table 1, unit inferred, average ± SEM
  EC50: 366 ± 47.5 nM

## COc1ccc(Cl)cc1C(=O)Nc1ccc(CCN2CCOCC2)cc1
mtPTP; Table 1, average ± SEM
  Calcium Retention Capacity (CRC/CRC0 at 12.5 μM): 1.23 ± 0.02
IMM potential; [2]
  EC50: > 100 µM
[1]; Table 1, average ± SEM
  EC50: 9000 ± 404 nM

## CN1CCN(c2ccc(NS(=O)(=O)c3cccc(Cl)c3)cc2)CC1
mtPTP; Table 1, average ± SEM
  Calcium Retention Capacity (CRC/CRC0 at 12.5 μM): 1.05 ± 0.03
IMM potential; [2]
  EC50: > 100 µM
[1]; Table 1, average ± SEM
  EC50: 37500 ± 3630 nM

## COc1ccc(-c2cc(C(=O)Nc3cc(Cl)cnc3C)no2)cc1O
mtPTP; Table 1, average ± SEM
  Calcium Retention Capacity (CRC/CRC0) at 1.56 μM: 10.10 ± 1.14
  Calcium Retention Capacity (CRC/CRC0 at 12.5 μM): 13.47 ± 1.32
IMM potential; [2]
  EC50: > 100 µM
[1]; Table 1, average ± SEM
  EC50: 11 ± 1.1 nM

## Cc1ccccc1NC(=O)c1cc(-c2cccc(O)c2)on1
mtPTP; Table 1, average ± SEM
  Calcium Retention Capacity (CRC/CRC0 at 12.5 μM): 8.16 ± 0.92
IMM potential; [2]
  EC50: > 100 µM
[1]; Table 1, average ± SEM
  EC50: 30 ± 2.2 nM

## O=C(Nc1ccc(CN2CCNCC2)cc1)c1ccc(Cl)c(OCc2ccccc2)c1 [Entry 7]
mtPTP; [3]
  Calcium Retention Capacity (CRC/CRC0 at 12.5 μM): 18.3 ± 1.3
IMM potential; [4]
  EC50: 46.4 ± 3.2 µM
[1]; [3]
  EC50: 206 ± 21 nM

## COc1ccc(Cl)cc1C(=O)Nc1ccc(CCN2CCN(C(=O)OC(C)(C)C)CC2)cc1 [drawing 174]
mtPTP; Table 1, average ± SEM
  Calcium Retention Capacity (CRC/CRC0 at 12.5 μM): 1.90 ± 0.11

## COc1ccc(/C=C/C(=O)Nc2cccc(Cl)c2)cc1O [drawing 175]
mtPTP; Table 1, average ± SEM
  Calcium Retention Capacity (CRC/CRC0 at 12.5 μM): 14.02 ± 1.63

## O=C(Nc1ccc(CN2CCCCC2)cc1)c1ccc(Cl)c(OCc2ccc(Cl)cc2)c1 [Entry 10]
mtPTP; [3]
  Calcium Retention Capacity (CRC/CRC0 at 12.5 μM): 5.91 ± 0.38
IMM potential; [4]
  EC50: 24.7 ± 1.5 µM
[1]; [3]
  EC50: 1240 ± 390 nM

## COc1ccc(/C=C/C(=O)Nc2cccc(Cl)c2)cc1O [drawing 143]
mtPTP; Table 1, average ± SEM
  Calcium Retention Capacity (CRC/CRC0 at 12.5 μM): 11.05 ± 1.35
IMM potential; [2]
  EC50: > 100 µM
[1]; Table 1, average ± SEM
  EC50: 125 ± 7.1 nM

## COc1ccc(Cl)cc1C(=O)Nc1ccc(CCN2CCNCC2)cc1 [drawing 145]
mtPTP; Table 1, average ± SEM
  Calcium Retention Capacity (CRC/CRC0 at 12.5 μM): 1.37 ± 0.02
IMM potential; [2]
  EC50: > 100 µM
[1]; Table 1, average ± SEM
  EC50: 5850 ± 344 nM

## Cc1ncc(Cl)cc1NC(=O)c1cc(-c2cccc(O)c2)on1
mtPTP; Table 1, average ± SEM
  Calcium Retention Capacity (CRC/CRC0) at 1.56 μM: 6.62 ± 0.89
  Calcium Retention Capacity (CRC/CRC0 at 12.5 μM): 10.09 ± 0.91
IMM potential; [2]
  EC50: > 100 µM
[1]; Table 1, average ± SEM
  EC50: 24 ± 2.2 nM

## COc1ccc(Cl)cc1C(=O)Nc1ccc(CN2CCN(C(=O)OC(C)(C)C)CC2)cc1
mtPTP; Table 1, average ± SEM
  Calcium Retention Capacity (CRC/CRC0 at 12.5 μM): 1.33 ± 0.06
IMM potential; [2]
  EC50: > 100 µM
[1]; Table 1, average ± SEM
  EC50: 9240 ± 860 nM

## O=C(Nc1cccc(Cl)c1)c1cc(-c2ccc(O)cc2)on1
mtPTP; Table 1, average ± SEM
  Calcium Retention Capacity (CRC/CRC0 at 12.5 μM): 3.50 ± 0.57
IMM potential; [2]
  EC50: > 100 µM
[1]; Table 1, average ± SEM
  EC50: 2210 ± 174 nM

## O=C(Nc1cccc(Cl)c1Cl)c1cc(-c2cccc(O)c2)on1
mtPTP; Table 1, average ± SEM
  Calcium Retention Capacity (CRC/CRC0 at 12.5 μM): 4.00 ± 0.42
IMM potential; [2]
  EC50: > 100 µM
[1]; Table 1, average ± SEM
  EC50: 12500 ± 668 nM

## Cc1ccc(Cl)cc1NC(=O)c1cc(-c2ccc(Cl)c(O)c2)on1
mtPTP; Table 1, average ± SEM
  Calcium Retention Capacity (CRC/CRC0) at 1.56 μM: 6.21 ± 0.66 (at 1.56 μM)
IMM potential; [2]
  EC50: > 100 µM
[1]; Table 1, average ± SEM
  EC50: 2.16 ± 0.45 nM

## Cc1cc(Cl)cc(NC(=O)c2cc(-c3ccc(F)c(O)c3)on2)c1
mtPTP; Table 1, average ± SEM
  Calcium Retention Capacity (CRC/CRC0 at 12.5 μM): 6.08 ± 0.52
IMM potential; [2]
  EC50: > 100 µM
[1]; Table 1, average ± SEM
  EC50: 819 ± 58.9 nM

## COc1ccc(-c2cc(C(=O)Nc3cccc(Cl)c3C)no2)cc1O
mtPTP; Table 1, average ± SEM
  Calcium Retention Capacity (CRC/CRC0) at 1.56 μM: 9.59 ± 0.85
  Calcium Retention Capacity (CRC/CRC0 at 12.5 μM): 13.44 ± 0.93
IMM potential; [2]
  EC50: > 100 µM
[1]; Table 1, average ± SEM
  EC50: 0.0283 ± 0.0048 nM
